From patent US6017933A, “Mannich bases of conjugated styryl ketones” (University of Saskatchewan Technologies Inc., priority 1999, dated 2000)
“Also recorded” adds a separate entry of the source.

Key:
L1210 cells = assay: Cytotoxicity, murine L1210 leukemic cells; type: cell-based; conditions: Mus musculus, mean
[1] = tested on: P388 lymphocytic leukemia; assay: Murine P388 lymphocytic leukemia in vivo screen
Method: In order to evaluate whether these promising results could be translated into in vivo activity, two representative compounds 9d and 10a were chosen. […] These two compounds were examined in the murine P388 screen and against certain human tumors in athymic mice.
(§1) The compounds were examined by the Developmental Therapeutics Program, National Cancer Institute, U.S.A. The murine P388 lymphocytic leukemia assay was conducted by a reported known method and the maximum ILS figures for 9d and 10a were 5 and 20% respectively using doses of 54 and 6.7 mg/kg respectively. An increase of 20% or more in the life spans is considered to be statistically significant. A reference drug 5-fluorouracil has an ILS of >35 using a dose of 20 mg/kg when given intraperitoneally for five days. Passage of human tumors in athymic mice was undertaken by a known method. No definitions of activity are available but as a general rule compounds causing a 60% reduction in tumor weights in one of these screens would be evaluated further.

COLO 205 = COLO 205 human colon tumor xenograft in athymic mice; type: in vivo
Method: as §1

SW-620 = SW-620 human colon tumor xenograft in athymic mice; type: in vivo; conditions: 80 mg/kg
Method: as §1

NCI-H522 = NCI-H522 human non-small cell lung tumor xenograft in athymic mice; type: in vivo; conditions: 80 mg/kg
Method: as §1

LOX IMVI = LOX IMVI human melanoma xenograft in athymic mice; type: in vivo, human tumor in athymic mice; conditions: 80 mg/kg
Method: as §1

human Jurkat T cells [2] = assay: Growth inhibition of Jurkat T cells, trypan blue exclusion test; type: cell-based; conditions: read-out: growth of Jurkat T cells inhibited by 50% (IC50), 48 hours, 37° C., trypan blue
Method: All cell cultures used were maintained in RPMI 1640 medium, pH 7.4 supplanted with 10% fetal bovine serum and 50 μg/ml of gentamycin in 25 ml culture flasks at 37° C. in a humidified gas mixture of 5% carbon dioxide balanced with air and were passaged three times a week.
(§2) Cell viability was determined by the trypan blue exclusion test according to a literature procedure (Duke and Cohen, 1992). […] A flask containing ~10^6 cells/ml and 8 or […] of DMSO was used as the control. […] After 48 hours, cells were counted using a haemocytometer. The percentage of growth inhibition was calculated as follows: (C-T/C)×100 where C is the mean cell number in the control and T is the mean cell number in each treatment. […] All experiments were performed in triplicate.

[3] = tested on: Jurkat T, LV-50, H-9 and Molt-3 cells; assay: Cell viability of Jurkat T, LV-50, H-9 and Molt-3 cells; type: cell-based; conditions: 10 μM, 24 hour
Method: FIG. 5 is a graph showing percent viability of Jurkat T, LV-50, H-9 and Molt 3 cells after exposure to 10 μM of compound 9d for a 24 hour period with error bars representing mean±standard deviation in three separate experiments;
as §2

human Jurkat T cells [4] = assay: DNA fragmentation by agarose gel electrophoresis; type: cell-based; conditions: Compound 9d 6 and 10 μM; melphalan 10 μM
CEM cells = assay: Cytotoxicity, CEM human T-lymphocytes
Molt 4/C8 cells = assay: Cytotoxicity, Molt 4/C8 human T-lymphocytes
P388 cells = assay: Cytotoxicity, murine P388 leukemic cells (P388 D1); conditions: read-out: P388 cells IC50
human tumors = assay: Cytotoxicity, human tumor cell line panel (approximately 55 lines)
human Jurkat T cells [5] = assay: Apoptosis, fluorescence microscopy with acridine orange and ethidium bromide; conditions: for percentage of apoptotic cells: 17 hours, control 4.4%
[6] = tested on: proton translocating ATPase of Saccharomyces cerevisiae; conditions: cited from earlier work

## CCN1CCC(O)(/C=C/c2ccc(C)cc2)C(C(=O)/C=C/c2ccc(C)cc2)C1 (stereo not shown) [Compound 9d]
L1210 cells
  IC50: 6.08 µM
[1]; 54 mg/kg
  maximum ILS, murine P388: 5%
[1]; in words
  activity in the murine P388 screen: inactive
COLO 205; COLO 205, 200 mg/kg, increase in median time to reach a certain size
  % ILS: 28%
COLO 205; COLO 205, 200 mg/kg, percentage reduction of median tumor weight
  percent reduction in median tumor weight: 57%
COLO 205; athymic mice, Example 5
  reduction in the weight of the human COLO 205 colon tumor: 60%
SW-620
  % ILS: 9%
  % T/C: 32%
NCI-H522
  % ILS: -2%
  % T/C: 23%
LOX IMVI
  % ILS: 12%
  % T/C: 35%
Human Jurkat T cells [2]
  IC50: 3.46 µM
[3]
  sensitivity of cell lines: Jurkat T cells were the most sensitive in its response, although all cell cultures were affected
Human Jurkat T cells [4]
  DNA ladder / DNA fragmentation: did not show any DNA ladder; also recorded: no DNA fragmentation was detected
CEM cells; Homo sapiens, CCRF-CEM, read-out: CEM cells IC50
  IC50: 14 µM
CEM cells; IC50 T-lymphocytes (CEM)/IC50 L1210
  TIL1210 (CEM cells): 2.31
CEM cells; IC50 T-lymphocytes (CEM)/IC50 P388
  TIP388 (CEM cells): 6.69
CEM cells; IC50 T-lymphocytes (CEM)/IC50 human tumors
  TIht (CEM cells): 2.80
Molt 4/C8 cells
  cytotoxicity to murine leukemic and human tumor cells vs T-lymphocytes: greater cytotoxicity to murine leukemic cells and human tumor cell lines than to T-lymphocytes
Molt 4/C8 cells; IC50 T-lymphocytes (Molt 4/C8)/IC50 L1210
  TIL1210 (Molt 4/C8 cells): 4.44
Molt 4/C8 cells; IC50 T-lymphocytes (Molt 4/C8)/IC50 P388
  TIP388 (Molt 4/C8 cells): 12.85
Molt 4/C8 cells; IC50 T-lymphocytes (Molt 4/C8)/IC50 human tumors
  TIht (Molt 4/C8 cells): 5.39
Molt 4/C8 cells; read-out: Molt 4/C8 cells IC50
  IC50: 27 µM
P388 cells
  IC50: 2.1 µM
Human tumors; human tumor screen
  selective/preferential cytotoxicity towards colon cancer cells: preferential cytotoxicity towards human colon cells; also recorded: preferential cytotoxicity to colon; also recorded: selective toxicity to human colon cancer cells
Human tumors; read-out: human tumors IC50, mean graph midpoint, approximately 55 cell lines, hydrobromide salts used for 4a, 11a-e
  IC50: 5.01 µM
Human Jurkat T cells [5]
  apoptotic index / apoptosis induction (in words): the apoptotic index increased almost two fold; also recorded: greater apoptotic index than melphalan; also recorded: more potent inducer of apoptosis; also recorded: potent apoptotic agent
  time after which apoptotic effects were detectable: 3 h
Human Jurkat T cells [5]; 6 μM, 17 h
  morphological features: characteristic blebbing and apoptotic bodies
Human Jurkat T cells [5]; 6 μM
  percentage of apoptotic cells: 22%
Human Jurkat T cells [5]; 10 μM
  percentage of apoptotic cells: 43%
Human Jurkat T cells [5]; 48 hours
  death of treated cells: all the treated cells had died

## COc1ccc2[nH]c([S+]([O-])Cc3ncc(C)c(OC)c3C)nc2c1 (stereo not shown) [omeprazole]
[6]
  inhibition of proton translocating ATPase: inhibited the proton translocating ATPase of Saccharomyces cerevisiae
